One experiment has as its system SK-OV-3. Briefly: Cytotoxicity against human ovarian adenocarcinoma (SK-OV-3) cell line using MTT assay. The class given is functional, cell-based. In general terms: Formazan colour is commonly taken as a measure of viable cells.
The next experiment concerns K562. The experiment can be described thus: Cytotoxicity against human chronic myelogenous leukemia (K562) cell line using MTT assay. It is filed as functional, cell-based.
The subject of the next experiment is A549. Briefly: Cytotoxicity against human lung carcinoma A549 cell line using MTT assay.
Experiment [1] has as its system SW-620. The experiment can be described thus: Antitumor activity was evaluated against human colon carcinoma (SW620) as tumor growth inhibition in human tumor xenograft mice upon intraperitoneal administration at doses of 1,2,3mg/kg. The class given is functional. Background: A xenograft is tissue or cells of one species grown in another, often human tumour cells in immunodeficient mice.

In experiment [2] the test system is SW-620. Briefly: Antitumor activity was evaluated against human colon carcinoma (SW620) as body weight change in human tumor xenograft mice upon intraperitoneal administration at doses of 1,2,3mg/kg. The class given is functional.
A short description of experiment [3]: Antitumor activity was evaluated against Lewis lung carcinoma as tumor growth inhibition was determined in BDF1 mice upon intraperitoneal administration at a dose of 4 mg/kg. The class given is functional, Mus musculus.
The test system of experiment [4] is NCI-H23. The experiment can be described thus: Antitumor activity was evaluated against human lung carcinoma (NCI-H23) as tumor growth inhibition in human tumor xenograft mice upon intraperitoneal administration at doses of 1,2,3mg/kg. It is filed as functional.
Experiment [5] relates to NCI-H23. The experiment can be described thus: Antitumor activity was evaluated against human lung carcinoma (NCI-H23) as body weight change in human tumor xenograft mice upon intraperitoneal administration at doses of 1,2,3mg/kg. The class given is functional.
Experiment [6] deals with Colon 26. Briefly: Antitumor activity was evaluated against murine colon carcinoma (Colon26) as body weight change in BALB/c mice upon intraperitoneal administration at a dose of 4 mg/kg. It is filed as functional, Mus musculus.
Experiment [7] concerns Colon 26. The experiment can be described thus: Antitumor activity was evaluated against murine colon carcinoma (Colon26) as tumor growth inhibition was determined in BALB/c mice upon intraperitoneal administration at a dose of 4 mg/kg. It is filed as functional, Mus musculus.
A short description of experiment [8]: Antitumor activity was evaluated against Lewis lung carcinoma as body weight change in BDF1 mice upon intraperitoneal administration at a dose of 4 mg/kg. It is filed as functional, Mus musculus.
The test system of experiment [9] is NCI-H23. Briefly: Antitumor activity was evaluated against human lung carcinoma (NCI-H23) as tumor growth inhibition in human tumor xenograft mice upon peroral administration at a dose of 65 mg/kg. It is filed as functional. The conditions noted are these: Mus musculus, route oral, read-out: TGI.
Experiment [10] in a line: Antitumor activity was evaluated against Lewis lung carcinoma as body weight change in BDF1 mice upon peroral administration at a dose of 100 mg/kg. It is filed as functional, Mus musculus. The conditions noted are these: route oral.
The test system of experiment [11] is Colon 26. Briefly: Antitumor activity was evaluated against murine colon carcinoma (Colon26) as tumor growth inhibition was determined in BALB/c mice upon peroral administration at a dose of 65 mg/kg. It is filed as functional. The conditions noted are these: Mus musculus, route oral, read-out: TGI.
The test system of experiment [12] is SW-620. Briefly: Antitumor activity was evaluated against human colon carcinoma (SW620) as tumor growth inhibition in human tumor xenograft mice upon peroral administration at a dose of 65 mg/kg. The class given is functional. The conditions noted are these: Mus musculus, route oral, read-out: TGI.
Experiment [13] has as its system SW-620. Briefly: Antitumor activity was evaluated against human colon carcinoma (SW620) as body weight change in human tumor xenograft mice upon peroral administration at a dose of 65 mg/kg. It is filed as functional. The conditions noted are these: route oral.
Experiment [14] in a line: Antitumor activity was evaluated against Lewis lung carcinoma as tumor growth inhibition was determined in BDF1 mice upon peroral administration at a dose of 100 mg/kg. The class given is functional. To be noted: Mus musculus, route oral, read-out: TGI.
In experiment [15] the test system is NCI-H23. The experiment can be described thus: Antitumor activity was evaluated against human lung carcinoma (NCI-H23) as body weight change in human tumor xenograft mice upon peroral administration at a dose of 65 mg/kg. To be noted: route oral. The class given is functional.
The test system of experiment [16] is Colon 26. The experiment can be described thus: Antitumor activity was evaluated against murine colon carcinoma (Colon26) as body weight change in BALB/c mice upon peroral administration at a dose of 65 mg/kg. The class given is functional, Mus musculus. To be noted: route oral.

As a reminder, the IC50 is the concentration needed to halve the response being measured.

For `O=C(c1ccccc1)N1CCc2cc(S(=O)(=O)N3CC(c4ccccc4)NC3=O)ccc21` (stereo not drawn), the IC50 in the experiment with SK-OV-3 came to 0.56 µM; with K562, 4.12 µM; in the experiment with A549 it was 0.44 µM.
In the case of `COc1cccc2c1C(=O)c1c(O)c3c(c(O)c1C2=O)C[C@@](O)(C(=O)CO)C[C@@H]3O[C@H]1C[C@H](N)[C@H](O)[C@H](C)O1` [DOXORUBICIN], the values for the IC50 in the experiment with SK-OV-3 and in the experiment with K562 were 4.15 µM and 1.77 µM, respectively. In addition, the TCI was determined as 49% with SW-620 [1], 60.4% in experiment [3], 39% in the experiment with NCI-H23 [4] and 42.5% in the experiment on Colon 26 [7]. The Body weight change with SW-620 [2] is -2.6 g; in the experiment with NCI-H23 [5], -2.6 g; with Colon 26 [6], 3 g; in experiment [8] it was 2 g.
In the case of `O=C1NC(c2ccccc2)CN1S(=O)(=O)c1ccc2c(c1)CCC2` (stereo not drawn), the IC50 amounted to 12.1 µM with SK-OV-3, 42.7 µM in the experiment with K562 and 4.74 µM in the experiment with A549.
Turning to `O=C(c1ccc([N+](=O)[O-])cc1)N1CCc2cc(S(=O)(=O)N3CC(c4ccccc4)NC3=O)ccc21` (stereo not drawn), the IC50 with SK-OV-3 was determined as 4.24 µM; in the experiment with K562, 18 µM; in the experiment with A549 it was 3.45 µM.
Consider `O=C(Nc1ccc(Cl)cc1)NS(=O)(=O)c1ccc2c(c1)CCC2` [SULOFENUR], for which the values for the IC50 with SK-OV-3, in the experiment on K562 and with A549 were 223 µM, 50.1 µM and 36.4 µM, respectively.
Consider `Nc1ccc(C(=O)N2CCc3cc(S(=O)(=O)N4CC(c5ccccc5)NC4=O)ccc32)cc1` (stereo not drawn), for which the IC50 in the experiment on SK-OV-3 was found to be 1.24 µM; in the experiment on K562, 0.44 µM; in the experiment on A549 it was 0.2 µM. Further, the inhibition in vivo at 65 mg/kg was 67% with NCI-H23 [9], 55.6% with Colon 26 [11] and 87% in the experiment on SW-620 [12]. Further, the Body weight change in experiment [10] is listed as -1 g; with SW-620 [13], 1 g; in the experiment with NCI-H23 [15], 0.6 g; in the experiment with Colon 26 [16] it was 0.4 g. In addition, the inhibition in vivo at 100 mg/kg in experiment [14] was determined as 84.3%.

Source of the values: ChEMBL document CHEMBL1131388, “Synthesis and antitumor activity of 4-phenyl-1-arylsulfonyl imidazolidinones” (Bioorg Med Chem Lett, 1998).
